For experiment [1], the target named is T1, LecA (Pseudomonas aeruginosa, UniProt Q05097).
T1 construct: made in house
The note with it: read-out: Kd by ITC; cited from earlier work.

The target in the next experiment is T2, LecB (Pseudomonas aeruginosa, UniProt Q9HYN5).
T2 construct: made in house
Nature of the experiment: Competitive binding assay based on fluorescence polarization, LecB.

Experiment [2] deals with P. aeruginosa PAO1 biofilms. In words: In vitro biofilm staining under flow conditions, injection method. It is filed as cell-based, Pseudomonas aeruginosa. Particulars: 17 μM in channel, 10 min incubation, then flow 3 mL/h for 10-20 min. As to the method: (§1) P. aeruginosa biofilms were grown under flow conditions and observed by fluorescence microscopy in analogy to Ghanbari et al.[66] To this end, P. aeruginosa PAO1 expressing the red fluorescent protein mCherry[56] was diluted to an OD600 nm of 0.1 and injected into the microfluidics device. After a 30-min settling period, biofilms were grown under a constant laminar flow rate of 3 mL/h per channel. Following 48 h of incubation at 30 °C, dense and mature P. aeruginosa PAO1 biofilms were observed, which were then further used for analysis of the imaging probes.
Two different staining methods were evaluated for the imaging of P. aeruginosa PAO1 biofilms: (I) direct injection of the imaging compounds into the flow system or (II) compound supplementation into the medium and gradual accumulation at the biofilm (Figure S18). […] The flow of compounds 17 and 24 and their arrival in the flow cells were monitored using a fluorescence microscope attached to the flow system. […]
Figure 4 Staining of P. aeruginosa PAO1 biofilms under flow following the injection method. […] Pictures of the same aggregates were recorded prior to compound injection (t−10), during a 10 min incubation period without flow (t0) and during the wash period (constant flow, 3 mL/h) at different time points t5, t10, t15, and t20 (5, 10, 15, and 20 min) using a fluorescence microscope. […]

For experiment [3], the system named is P. aeruginosa PAO1 biofilms. In words: In vitro biofilm staining under flow conditions, compound supplementation to the medium. In kind it is cell-based, Pseudomonas aeruginosa. The note with it: 500 nM in medium, 4 h, 3 mL/h, fluorescence microscope. The procedure:
as §1
To circumvent these technical drawbacks, the addition of compounds to the medium reservoir and retention at the biofilm was pursued. Imaging compounds were added to the medium reservoirs at a concentration of 500 nM, which were continuously pumped (3 mL/h) through the flow cell for 4 h. Compound accumulation at mature P. aeruginosa biofilms was immediately analyzed using fluorescence microscopy. Afterwards, the medium was exchanged, and the biofilms were washed for 30 min (3 mL/h, no compound) to monitor the retention (Figure 5). Furthermore, an analysis using CLSM was also performed after 4 h of accumulation without washing (Figures 5 and S22).
Figure 5 Staining of P. aeruginosa PAO1 biofilms grown under flow conditions with compound supplementation to the medium. Biofilm staining with (A) fluorescein divalent probe 17, (B) fluorescein control 24, (C) BODIPY divalent probe 19, and (D) BDP FL azide control 18 was monitored after 4 h of accumulation under constant flow (3 mL/h) of LB media containing 500 nM of respective compound. Retention of imaging compounds is shown after a subsequent wash period for 30 min with medium (3 mL/h, no compound). Images were recorded by using a fluorescence microscope. CLSM was performed for (E) BODIPY divalent probe 19 and the control (F) BDP FL azide 18 after 4 h of accumulation. Green signal originates from fluorescently labeled probes 17 and 19 and controls 24 and 18. P. aeruginosa constitutively expressing mCherry from pMP7605^56 is shown in red. Z-Stack size, 2 μm. Scale bar = 50 μm.
In vitro biofilm staining under flow conditions
The flow cell experiment was set up in analogy to Ghanbari et al. and in this study, optimized and established for biofilm staining.25 In principle, the experiment is based on an inlet connected to a medium source, a peristaltic pump providing constant medium flow, a flow chamber enabling analysis of bacterial growth and an outlet (waste container/bottle).
The medium used in the flow system was LB diluted by factor 5 containing 60 µg/mL
Gm. Silicone tubings 1.6 mm (ibidi, Germany) were used transporting medium from inlet to the peristaltic pump (Watson-Marlow Fluid Technology Solutions). Stopper hoses (CarlRoth) placed in peristaltic pump were coupled to silicone tubes via connectors (ibidi, Germany).
Stopper hoses are connected to bubble traps (obtained by Claus Sternberg, DTU Copenhagen) via 0.8 mm silicone tubing (ibidi, Germany). Bubble traps were used to remove air from the medium flow and to avoid biofilm disruption. Downstream from the bubble traps, the flow cell (μ-Slide VI 0.4 ibiTreat, ibidi, Germany) was placed into the system and connected to 1.6 mm silicone tubes (ibidi, Germany). The outlet is leading the medium from flow chamber to a waste […]
In order to inoculate the flow cell with P. aeruginosa PAO1 mCherry (pMP7605)23 the silicone tubes upstream and downstream of the flow chamber were pinched off by using commercial plastic clamps. The medium flow was stopped and the flow cell was inoculated by injecting 300 µL of the bacterial suspension (OD600nm of 0.1) into the silicone tubing upstream of the flow chamber. For this, a cannula (0.30 x 12 mm, Sterican) was used. The injection point was sealed with silicone glue. After bacterial settling time of 30 min, the flow was started again and clamps were removed. Growth temperature was regulated by using a heat system (ibidi, […]
Germany). […]

The target in experiment [4] is T1, LecA. In words: Competitive binding assay based on fluorescence polarization, LecA. The note with it: LecA 20 µM, reporter ligand S38, 2% DMSO; read-out: IC50 (competitive binding, FP). The procedure: Next, binding of the optimized divalent ligand 17 and its synthetic precursor 16 to LecA was evaluated by fluorescence polarization-based (FP) assays,[47] SPR, and ITC. […] Therefore, fluorescent ligand 17 was analyzed in a direct binding experiment by FP. […] The dissociation constants for 16 were 47.2 ± 11.3 nM (ITC) and 47.8 ± 44.1 nM (steady-state SPR), while for 17, the values were 64.1 ± 31.1 nM and 79.3 ± 24.9 nM (steady-state SPR). For the SPR experiments, Kd was also determined by single-cycle kinetic analysis resulting in approximately five times higher affinity, but the data have limited reliability due to suboptimal fit for the kinetic curves (Figures S13B and S14).[58]−[60] […]
137 mM NaCl, 2.6 mM KCl at pH 7.4 supplemented with 1 mM CaCl2). Protein concentration was determined by UV spectroscopy at 280 nm using a molar extinction coefficient of 27 960 M-1 cm-1 for LecA and 6 990 M-1 cm-1 for LecB.
All synthesized alkyne precursors (S5m, S5p, S6m, S6p, S11, 25, S16, S22 and S24) were analysed in the previously established competitive binding assays based on fluorescence polarization (Figure S2).18,19 Galactose-based compounds (S5m, S5p, S6m, S6p, S11) were evaluated against LecA and C-glycoside-based compounds […] and S16 against LecB. […]
PheraStar FS plate reader (BMG Labtech GmbH, Germany) with excitation filters at 485 nm and emission filters at 535 nm. […]

The values that follow come from PMC11672137, “High-Affinity Lectin Ligands Enable the Detection of Pathogenic Pseudomonas aeruginosa Biofilms: Implications for Diagnostics and Therapy” (JACS Au, 2024).

SMILES strings stand for the structures.

T1 sequence (Q05097 whole entry): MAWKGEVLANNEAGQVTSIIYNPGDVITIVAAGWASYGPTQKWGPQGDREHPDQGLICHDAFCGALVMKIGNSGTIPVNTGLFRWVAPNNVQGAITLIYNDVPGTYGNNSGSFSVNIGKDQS
T2 sequence (Q9HYN5 entry or part of it): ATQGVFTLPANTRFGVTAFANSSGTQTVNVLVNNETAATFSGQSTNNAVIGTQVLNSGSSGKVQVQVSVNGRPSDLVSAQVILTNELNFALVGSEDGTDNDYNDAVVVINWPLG
Protocol for LecB: LecA competitive binding assay was performed in presence of 2% DMSO, whereas LecB competitive binding assay had less than 0.5% DMSO present. In short, the compound dilution series were prepared in 96 well plates. 10 µL of each dilution in triplicates were mixed with 10 µL of master mix (40 µM LecA, 20 nM galactose-fluorescein reporter ligand S38 or 300 nM LecB and 20 nM S39 in TBS/Ca2+ buffer, Figure S3) in 384-well microtiter plates (Greiner Bio-One, Germany, cat no 781900). The plates were centrifuged (1 min, 500 g), sealed (EASYseal, Greiner Bio-One, cat no 676001) and incubated for 1 h in case of LecA and 6 h in case of LecB in a dark wet chamber under gentle shaking. Fluorescence was measured on a
PheraStar FS plate reader (BMG Labtech GmbH, Germany) with excitation filters at 485 nm and emission filters at 535 nm. The measured intensities were reduced by the blank values (protein in TBS/Ca2+ buffer) and analysed with MARS Data Analysis Software (BMG Labtech GmbH, Germany). IC50 values were determined by the four-parameter variable slope model with the minimum and maximum limits of the fit fixed according to the controls in each assay

Turning to `OC[C@H]1O[C@@H](Oc2ccccc2)[C@H](O)[C@@H](O)[C@H]1O` [compound 1, phenyl β-D-galactoside], the Kd on LecA [1] is 8.8 µM.

As for `C#Cc1ccc(S(=O)(=O)NC[C@H]2O[C@@H](C)[C@@H](O)[C@@H](O)[C@@H]2O)s1` [compound 23], the IC50 on LecB came out at 2.4 ± 0.5 µM.

`O=C1OC2(c3ccc(O)cc3Oc3cc(O)ccc32)c2ccccc21` [compound 24, fluorescein, reference compound]: the “Retention of fluorescence at biofilm during wash” value in experiment [2] is “completely disappeared after 10 min”. Besides, the “Biofilm staining after accumulation” value in experiment [3] was “did not result in any observable staining”.

Consider `O=[N+]([O-])c1ccc(O[C@@H]2O[C@H](CO)[C@H](O)[C@H](O)[C@H]2O)cc1` [para-nitrophenyl β-D-galactoside], for which, at LecA [4], the IC50 amounted to 39.7 ± 11.5 µM.
